The text below walks through data of patent US7229782B1, “Antibodies specific to multiple beta blockers and methods for their use” (LabOne, Inc., priority 2004, dated 2007).

This experiment has as its system antibody of the present invention. As to the kind of experiment: Interference from other drugs, homogeneous enzyme immunoassay. It is filed as binding, rabbit. Particulars: chemical at 10.0 μg/ml urine; cutoff 5.0 μg Atenolol per ml of urine; tested three times. The protocol: Samples were checked for turbidity and growth. A homogeneous enzyme immunoassay was carried out on an Olympus AU-5200 analyzer using the following assay parameters:
Reagent 1 is comprised of a titer of 1–500 dilution of an antibody of the present invention, 11.25 mM NAD+, 11.25 mM G6P, 0.1% w/v sodium azide and 100 mM Tris.
Reagent 2 is comprised of a titer of 1–2000 dilution of a G6PDH-beta blocker conjugate, 0.1% w/v sodium azide, and 50 mM Tris.
A homogenous calibrator containing sodium azide was used to calibrate the analyzer prior to each run.
The analytical cutoff for the test was set at 5.0 μg Atenolol per ml of urine. The result was scored as a positive if the signal strength was greater than that produced by 5.0 μg Atenolol per ml of urine.
Interference from other drugs was tested using fifty-five (55) frequently used chemicals and medicines, at concentrations of 10.0 μg/ml urine.
The samples were tested three times, following the procedures used in Example 3.
As for `CCOC(=O)[C@@H]1C2CCC(C[C@@H]1OC(=O)c1ccccc1)N2C` (stereo partly drawn) [Cocainethylene], the “Beta-Blocker Pos./Neg.” value is recorded as “Neg. (scored as a positive if the signal strength was greater than that produced by 5.0 μg Atenolol per ml of urine)”.
Then `c1ccc(C2(N3CCCCC3)CCCCC2)cc1` [Phencyclidine], with “Neg. (scored as a positive if the signal strength was greater than that produced by 5.0 μg Atenolol per ml of urine)”.
Regarding `O=C(O)C1N=C(c2ccccc2)c2cc(Cl)ccc2NC1=O` (stereo not drawn) [Clorazepate], the “Beta-Blocker Pos./Neg.” value is “Neg. (scored as a positive if the signal strength was greater than that produced by 5.0 μg Atenolol per ml of urine)”.
Next, `CC(C)Cc1ccc(C(C)C(=O)O)cc1` (stereo not drawn) [Ibuprofen]: “Neg. (scored as a positive if the signal strength was greater than that produced by 5.0 μg Atenolol per ml of urine)”.
Then `NC(=O)c1cccnc1` [Niacinamide], with “Neg. (scored as a positive if the signal strength was greater than that produced by 5.0 μg Atenolol per ml of urine)”; and `C[C@H](N)Cc1ccccc1` [Amphetamine (D-)], with “Neg. (scored as a positive if the signal strength was greater than that produced by 5.0 μg Atenolol per ml of urine)”.
`CN[C@@H](C)[C@H](O)c1ccccc1.Cl` [Ephedrine Hydrochloride (1R,2S)-(−)]: the “Beta-Blocker Pos./Neg.” value is on record as “Neg. (scored as a positive if the signal strength was greater than that produced by 5.0 μg Atenolol per ml of urine)”.
Next, `Cc1ccc(C)c(OCCCC(C)(C)C(=O)O)c1` [Gemfibrozil]: “Neg. (scored as a positive if the signal strength was greater than that produced by 5.0 μg Atenolol per ml of urine)”; `CN(C)CCCN1c2ccccc2Sc2ccc(Cl)cc21` [Chlorpromazine]: “Neg. (scored as a positive if the signal strength was greater than that produced by 5.0 μg Atenolol per ml of urine)”.
For `CN1C(=O)C(O)N=C(c2ccccc2)c2cc(Cl)ccc21` (stereo not drawn) [Temazepam], the “Beta-Blocker Pos./Neg.” value is listed as “Neg. (scored as a positive if the signal strength was greater than that produced by 5.0 μg Atenolol per ml of urine)”.
Take `CCN(CC)CC(=O)Nc1c(C)cccc1C` [Lidocaine]: the “Beta-Blocker Pos./Neg.” value is given as “Neg. (scored as a positive if the signal strength was greater than that produced by 5.0 μg Atenolol per ml of urine)”.
Next, (−)-11-NOR-9-Carboxy-Delta9-THC: “Neg. (scored as a positive if the signal strength was greater than that produced by 5.0 μg Atenolol per ml of urine)”.
As to `CN[C@@H](C)[C@@H](O)c1ccccc1` [Pseudoephedrine], the “Beta-Blocker Pos./Neg.” value was “Neg. (scored as a positive if the signal strength was greater than that produced by 5.0 μg Atenolol per ml of urine)”.
For `COc1ccc2cc([C@H](C)C(=O)O)ccc2c1` [Naproxen], the “Beta-Blocker Pos./Neg.” value is listed as “Neg. (scored as a positive if the signal strength was greater than that produced by 5.0 μg Atenolol per ml of urine)”.
`O=C1CN=C(c2ccccc2Cl)c2cc([N+](=O)[O-])ccc2N1` [Clonazepam]: the “Beta-Blocker Pos./Neg.” value was “Neg. (scored as a positive if the signal strength was greater than that produced by 5.0 μg Atenolol per ml of urine)”.
Next, `CN1[C@H]2CC[C@@H]1[C@@H](C(=O)O)[C@@H](OC(=O)c1ccccc1)C2` [Benzoylecgonine]: “Neg. (scored as a positive if the signal strength was greater than that produced by 5.0 μg Atenolol per ml of urine)”.
`COC(=O)[C@@H]1[C@H]2CC[C@@H](C[C@@H]1O)N2C.Cl` [Ecgonine Methyl Ester Hydrochloride]: the “Beta-Blocker Pos./Neg.” value is given as “Neg. (scored as a positive if the signal strength was greater than that produced by 5.0 μg Atenolol per ml of urine)”.
Next, `Cn1c(=O)c2[nH]cnc2n(C)c1=O` [Theophylline]: “Neg. (scored as a positive if the signal strength was greater than that produced by 5.0 μg Atenolol per ml of urine)”; `CC(N)C(O)c1ccccc1` (stereo not drawn) [Phenylpropanolamine]: “Neg. (scored as a positive if the signal strength was greater than that produced by 5.0 μg Atenolol per ml of urine)”.
Then `CN[C@@H](C)[C@H](O)c1ccccc1` [Ephedrine (L-)], with “Neg. (scored as a positive if the signal strength was greater than that produced by 5.0 μg Atenolol per ml of urine)”.
`COc1ccc2c(c1)[C@]13CCCC[C@@H]1[C@H](C2)N(C)CC3` [Dextromethorphan]: the “Beta-Blocker Pos./Neg.” value is “Neg. (scored as a positive if the signal strength was greater than that produced by 5.0 μg Atenolol per ml of urine)”.
Then `CN1C(=O)CC[C@H]1c1cccnc1` [(−)-Cotinine], with “Neg. (scored as a positive if the signal strength was greater than that produced by 5.0 μg Atenolol per ml of urine)”.
On to `COc1ccc2c3c1O[C@H]1C(=O)CC[C@H]4[C@@H](C2)N(C)CC[C@]314` [Hydrocodone], for which the “Beta-Blocker Pos./Neg.” value was “Neg. (scored as a positive if the signal strength was greater than that produced by 5.0 μg Atenolol per ml of urine)”.
Next, `CC(=O)Oc1ccccc1C(=O)O` [Acetylsalicylic Acid]: “Neg. (scored as a positive if the signal strength was greater than that produced by 5.0 μg Atenolol per ml of urine)”.
As for `CN[C@@H](C)Cc1ccccc1` [Methamphetamine (D-)], the “Beta-Blocker Pos./Neg.” value is recorded as “Neg. (scored as a positive if the signal strength was greater than that produced by 5.0 μg Atenolol per ml of urine)”.
Take `CN(C)CCCN1c2ccccc2CCc2ccccc21` [Imipramine]: the “Beta-Blocker Pos./Neg.” value was “Neg. (scored as a positive if the signal strength was greater than that produced by 5.0 μg Atenolol per ml of urine)”.
Regarding Penicillin, the “Beta-Blocker Pos./Neg.” value is on record as “Neg. (scored as a positive if the signal strength was greater than that produced by 5.0 μg Atenolol per ml of urine)”.
Turning to `NCCc1ccccc1` [Phenethylamine (beta-)], the “Beta-Blocker Pos./Neg.” value is reported as “Neg. (scored as a positive if the signal strength was greater than that produced by 5.0 μg Atenolol per ml of urine)”.
Take `CCN(CC)CCNC(=O)c1ccc(N)cc1` [Procainamide]: the “Beta-Blocker Pos./Neg.” value was “Neg. (scored as a positive if the signal strength was greater than that produced by 5.0 μg Atenolol per ml of urine)”.
Take `C=CCC1(CC(C)C)C(=O)NC(=O)NC1=O` [Butalbital]: the “Beta-Blocker Pos./Neg.” value is recorded as “Neg. (scored as a positive if the signal strength was greater than that produced by 5.0 μg Atenolol per ml of urine)”.
On to `CCCC(C)C1(CC)C(=O)NC(=O)NC1=O` (stereo not drawn) [Pentobarbital], for which the “Beta-Blocker Pos./Neg.” value is “Neg. (scored as a positive if the signal strength was greater than that produced by 5.0 μg Atenolol per ml of urine)”.
As to `Cc1cc(CC(=O)O)n(C)c1C(=O)c1ccc(Cl)cc1` [Zomepirac], the “Beta-Blocker Pos./Neg.” value was “Neg. (scored as a positive if the signal strength was greater than that produced by 5.0 μg Atenolol per ml of urine)”.
Next, `CCC(=O)C(CC(C)N(C)C)(c1ccccc1)c1ccccc1` (racemic) [Methadone (DL-)]: “Neg. (scored as a positive if the signal strength was greater than that produced by 5.0 μg Atenolol per ml of urine)”.
With Ecgonine Hydrochloride, the “Beta-Blocker Pos./Neg.” value is “Neg. (scored as a positive if the signal strength was greater than that produced by 5.0 μg Atenolol per ml of urine)”.
Then `CC(C(=O)O)c1cccc(Oc2ccccc2)c1` (stereo not drawn) [Fenoprofen], with “Neg. (scored as a positive if the signal strength was greater than that produced by 5.0 μg Atenolol per ml of urine)”.
Then `COc1ccc2c3c1O[C@H]1[C@@H](O)C=C[C@H]4[C@@H](C2)N(C)CC[C@@]341` [Codeine], with “Neg. (scored as a positive if the signal strength was greater than that produced by 5.0 μg Atenolol per ml of urine)”.
For the compound `CNC[C@H](O)c1cccc(O)c1` [Phenylephrine], the “Beta-Blocker Pos./Neg.” value is on record as “Neg. (scored as a positive if the signal strength was greater than that produced by 5.0 μg Atenolol per ml of urine)”.
Next, `C=CCN1CC[C@]23c4c5ccc(O)c4O[C@H]2[C@@H](O)C=C[C@H]3[C@H]1C5` [Nalorphine]: “Neg. (scored as a positive if the signal strength was greater than that produced by 5.0 μg Atenolol per ml of urine)”; `Cc1nnc2n1-c1ccc(Cl)cc1C(c1ccccc1)=NC2` [Alprazolam]: “Neg. (scored as a positive if the signal strength was greater than that produced by 5.0 μg Atenolol per ml of urine)”.
Next, `O=C(O)c1cc(O)ccc1O` [Gentisic Acid]: “Neg. (scored as a positive if the signal strength was greater than that produced by 5.0 μg Atenolol per ml of urine)”; PCP: “Neg. (scored as a positive if the signal strength was greater than that produced by 5.0 μg Atenolol per ml of urine)”.
As to `Cn1c(=O)c2c(ncn2C)n(C)c1=O` [Caffeine], the “Beta-Blocker Pos./Neg.” value was “Neg. (scored as a positive if the signal strength was greater than that produced by 5.0 μg Atenolol per ml of urine)”.
Next, `CC1(C)S[C@@H]2[C@H](NC(=O)[C@H](N)c3ccccc3)C(=O)N2[C@H]1C(=O)O` [Ampicillin]: “Neg. (scored as a positive if the signal strength was greater than that produced by 5.0 μg Atenolol per ml of urine)”.
With `C=C[C@H]1C[N@@]2CC[C@H]1C[C@@H]2[C@@H](O)c1ccnc2ccc(OC)cc12` [Quinidine], the “Beta-Blocker Pos./Neg.” value is “Neg. (scored as a positive if the signal strength was greater than that produced by 5.0 μg Atenolol per ml of urine)”.
For the compound `CCN(CC)CCOC(=O)c1ccc(N)cc1` [Procaine], the “Beta-Blocker Pos./Neg.” value is on record as “Neg. (scored as a positive if the signal strength was greater than that produced by 5.0 μg Atenolol per ml of urine)”.
